Measurements reported in US20160135455A1, “SAFENED HERBICIDAL COMPOSITIONS COMPRISING PYRIDINE CARBOXYLIC ACIDS” (Dow AgroSciences LLC, priority 2014, published 2016).
Like-named read-outs stand apart in the source and are kept apart here.

Tests used:
Assay type in all cases: in vivo
[1] = tested on: wheat (TRZAS), Triticum aestivum (spring wheat); assay: Postemergence greenhouse trial, crop injury (phytotoxicity/safening) on wheat; conditions: applied alone at 35 g/ha, scored 20-22 d, 0 = no injury, 100 = complete kill
Experimental: (§1) Seeds of the desired test plant species were planted in Sun Gro MetroMix® 306 planting mixture, which typically has a pH of 6.0 to 6.8 and an organic matter content of about 30 percent, in plastic pots with a surface area of 103.2 square centimeters (cm^2). When required to ensure good germination and healthy plants, a fungicide treatment and/or other chemical or physical treatment was applied. The plants were grown for 7-36 days (d) in a greenhouse with an approximate 14-hour (h) photoperiod which was maintained at about 23° C. during the day and 22° C. during the night. Nutrients and water were added on a regular basis and supplemental lighting was provided with overhead metal halide 1000-Watt lamps as necessary. The plants were employed for testing when they reached the second or third true leaf stage.
(§2) Weighed amounts of technical material were dissolved in a volume of 97:3 volume per volume (v/v) acetone/dimethyl sulfoxide (DMSO) to stock solutions. […] The concentrated stock solutions were diluted with an aqueous mixture of 1.5% v/v of Agri-dex crop oil concentrate to provide the appropriate application rates. Compound requirements are based upon a 12 milliliter (mL) application volume at a rate of 187 liters per hectare (L/ha). Stocks solutions of the safeners were prepared following the same procedure. Spray solutions of the safeners and experimental compound mixtures were prepared by adding the stock solutions to the appropriate amount of dilution solution to form a 12 mL spray solution in two-way combinations. Formulated compounds were applied to the plant material with an overhead Mandel track sprayer equipped with 8002E nozzles calibrated to deliver 187 L/ha over an application area of 0.503 square meters (m^2) at a spray height of 18 inches (43 centimeters (cm)) above average plant canopy. Control plants were sprayed in the same manner with the solvent blank. All herbicide application (component a) rates are in g ae/ha and all safener (component b) rates are in g ai/ha.
(§3) The treated plants and control plants were placed in a greenhouse as described above and watered by sub-irrigation to prevent wash-off of the test compounds. After 20-22 d, the condition of the test plants as compared with that of the control plants was determined visually and scored on a scale of 0 to 100 percent where 0 corresponds to no injury and 100 corresponds to complete kill. The condition of the test plants was compared with that of the control plants as determined visually and scored on a scale of 0 to 100 percent, where 0 corresponds to no injury and 100 corresponds to complete kill. Colby's equation was used to determine the herbicidal effects expected from the mixtures.
(§4) The safener fenchlorazole-ethyl was combined with compound 1, compound 2, compound 3, compound 4, compound 5, and compound 6, and applied to wheat (TRZAS), and the phytotoxicity of the herbicidal compositions was measured. In addition, the efficacy of the herbicidal composition on velvetleaf (ABUTH, Abutilon theophrasti), pigweed (AMARE, Amaranthus retroflexus), winter rape (BRSNW, Brassica napus), lambsquarters (CHEAL, Chenopodium album), thistle (CIRAR, Cirsium arvense), nutsedge (CYPES, Cyperus esculentus), poinsettia (EPHHL, Euphorbia heterophylla), wild buckwheat (POLCO, Polygonum convolvulus), giant foxtail (SETFA, Setaria faberi), sorghum (SORVU, Sorghum bicolor), chickweed (STEME, Stellaria media), and wild pansy (VIOTR, Viola tricolor) was evaluated.
The safener isoxadifen-ethyl was combined with compound 1, compound 2, compound 3, compound 4, compound 5, and compound 6, and applied to wheat (TRZAS), and the phytotoxicity of the herbicidal compositions was measured. […]

[2] = tested on: velvetleaf (ABUTH, Abutilon theophrasti); assay: Postemergence greenhouse trial, herbicidal efficacy on velvetleaf; conditions: post-emergence, 528 h
Experimental: as §1, §2, §3

[3] = tested on: pigweed (AMARE, Amaranthus retroflexus); assay: Postemergence greenhouse trial, herbicidal efficacy on pigweed; conditions: post-emergence, 528 h
Experimental: as §1, §2, §3

[4] = tested on: winter rape (BRSNW, Brassica napus); assay: Postemergence greenhouse trial, herbicidal efficacy on winter rape; conditions: post-emergence, 528 h
Experimental: as §1, §2, §3

[5] = tested on: lambsquarters (CHEAL, Chenopodium album); assay: Postemergence greenhouse trial, herbicidal efficacy on lambsquarters; conditions: post-emergence, 528 h
Experimental: as §1, §2, §3

[6] = tested on: thistle (CIRAR, Cirsium arvense); assay: Postemergence greenhouse trial, herbicidal efficacy on thistle; conditions: post-emergence, 528 h
Experimental: as §1, §2, §3

[7] = tested on: poinsettia (EPHHL, Euphorbia heterophylla); assay: Postemergence greenhouse trial, herbicidal efficacy on poinsettia; conditions: Euphorbia heterophylla, post-emergence, 528 h, read-out: % visual injury, Obs, EPHHL
Experimental: as §1, §2, §3

[8] = tested on: wild buckwheat (POLCO, Polygonum convolvulus); assay: Postemergence greenhouse trial, herbicidal efficacy on wild buckwheat; conditions: Fallopia convolvulus, post-emergence, 528 h
Experimental: as §1, §2, §3

[9] = tested on: giant foxtail (SETFA, Setaria faberi); assay: Postemergence greenhouse trial, herbicidal efficacy on giant foxtail; conditions: applied alone at 35 g/ha; for % visual injury, Obs, SETFA: rated after 20-22 d; for Obs, % visual injury, SETFA: scored 20-22 d
Experimental: as §1, §2, §3

[10] = tested on: sorghum (SORVU, Sorghum bicolor); assay: Postemergence greenhouse trial, herbicidal efficacy on sorghum; conditions: applied alone at 35 g/ha; for % visual injury, Obs, SORVU: rated after 20-22 d
Experimental: as §1, §2, §3

[11] = tested on: chickweed (STEME, Stellaria media); assay: Postemergence greenhouse trial, herbicidal efficacy on chickweed; conditions: post-emergence, 528 h
Experimental: as §1, §2, §3

[12] = tested on: wild pansy (VIOTR, Viola tricolor); assay: Postemergence greenhouse trial, herbicidal efficacy on wild pansy; conditions: for pest or weed control at 35 g/ha: Viola tricolor, post-emergence, 528 h, read-out: Obs, % visual injury, VIOTR; for % visual injury, Obs, VIOTR: rated after 20-22 d
Experimental: as §1, §2, §3

[13] = tested on: corn/maize (ZEAMX), Zea mays; assay: Postemergence greenhouse trial, crop injury (phytotoxicity/safening) on corn/maize; conditions: applied alone at 35 g/ha, rated after 20-22 d
Experimental: as §1
as §2, with “All herbicide application (component a) rates are in g ae/ha and all safener (component b) rates are in g ai/ha.” left out
as §3, with “Colby's equation was used to determine the herbicidal effects expected from the mixtures.” left out
as §4, with “compound” for “compound 3, compound 4, compound”, “corn/maize (ZEAMX)” for “wheat (TRZAS),”, “bicolor), and” for “bicolor),”, “media)” for “media), and wild pansy (VIOTR, Viola tricolor)”
The safener mefenpyr-diethyl was combined with compound 1, compound 2, and compound 5, and applied to corn/maize (ZEAMX) and the phytotoxicity of the herbicidal compositions were measured. […]

[14] = tested on: nutsedge (CYPES, Cyperus esculentus); assay: Postemergence greenhouse trial, herbicidal efficacy on nutsedge; conditions: applied alone at 35 g/ha, rated after 20-22 d
Experimental: as §1, §2, §3

[15] = applied alone at 35 g/ha, postemergence
[16] = read-out: % visual injury, Obs, ABUTH
[17] = read-out: Obs, % visual injury, ABUTH
[18] = read-out: % visual injury, Obs, AMARE
[19] = read-out: Obs, % visual injury, AMARE
[20] = read-out: % visual injury, Obs, BRSNW
[21] = read-out: Obs, % visual injury, BRSNW
[22] = read-out: % visual injury, Obs, CHEAL
[23] = read-out: Obs, % visual injury, CHEAL
[24] = read-out: % visual injury, Obs, CIRAR
[25] = read-out: Obs, % visual injury, CIRAR
[26] = read-out: % visual injury, Obs, POLCO
[27] = read-out: Obs, % visual injury, POLCO
[28] = read-out: % visual injury, Obs, STEME
[29] = read-out: Obs, % visual injury, STEME

| Compound | Obs, % visual injury, TRZAS [1] [%] | % visual injury, Obs, SETFA [9] [%] | Obs, % visual injury, SETFA [9] [%] | % visual injury, Obs, SORVU [10] [%] | % visual injury, Obs, VIOTR [12, 15] [%] | % visual injury, Obs, ZEAMX [13] [%] | pest or weed control at 35 g/ha [2, 16] [%] | pest or weed control at 35 g/ha [2, 17] [%] | pest or weed control at 35 g/ha [3, 18] [%] | pest or weed control at 35 g/ha [3, 19] [%] | plant injury at 35 g/ha [4, 20] [%] | plant injury at 35 g/ha [4, 21] [%] | pest or weed control at 35 g/ha [5, 22] [%] | pest or weed control at 35 g/ha [5, 23] [%] | pest or weed control at 35 g/ha [6, 24] [%] | pest or weed control at 35 g/ha [6, 25] [%] | pest or weed control at 35 g/ha [7] [%] | pest or weed control at 35 g/ha [8, 26] [%] | pest or weed control at 35 g/ha [8, 27] [%] | pest or weed control at 35 g/ha [11, 28] [%] | further results |
| --- | --- | --- | --- | --- | --- | --- | --- | --- | --- | --- | --- | --- | --- | --- | --- | --- | --- | --- | --- | --- | --- |
| COCC(=O)n1ccc2ccc(-c3nc(C(=O)OC)c(Cl)c(N)c3F)c(F)c21 [compound 6] | 35 | 10 | 10 | 70 | 30 | 25 | – | – | – | – | – | – | – | – | – | – | – | – | – | – | pest or weed control at 35 g/ha ([2]; applied alone at 35 g/ha, postemergence, rated after 20-22 d, read-out: % visual injury, Obs, ABUTH): 80%; pest or weed control at 35 g/ha ([2]; applied alone at 35 g/ha, postemergence, scored 20-22 d, read-out: Obs, % visual injury, ABUTH): 80%; pest or weed control at 35 g/ha ([3]; applied alone at 35 g/ha, postemergence, rated after 20-22 d, read-out: % visual injury, Obs, AMARE): 100%; pest or weed control at 35 g/ha ([3]; applied alone at 35 g/ha, postemergence, scored 20-22 d, read-out: Obs, % visual injury, AMARE): 100%; plant injury at 35 g/ha ([4]; applied alone at 35 g/ha, postemergence, rated after 20-22 d, read-out: % visual injury, Obs, BRSNW): 75%; plant injury at 35 g/ha ([4]; applied alone at 35 g/ha, postemergence, scored 20-22 d, read-out: Obs, % visual injury, BRSNW): 75%; pest or weed control at 35 g/ha ([5]; applied alone at 35 g/ha, postemergence, rated after 20-22 d, read-out: % visual injury, Obs, CHEAL): 100%; pest or weed control at 35 g/ha ([5]; applied alone at 35 g/ha, postemergence, scored 20-22 d, read-out: Obs, % visual injury, CHEAL): 100%; pest or weed control at 35 g/ha ([6]; applied alone at 35 g/ha, postemergence, rated after 20-22 d, read-out: % visual injury, Obs, CIRAR): 75%; pest or weed control at 35 g/ha ([6]; applied alone at 35 g/ha, postemergence, scored 20-22 d, read-out: Obs, % visual injury, CIRAR): 75%; pest or weed control at 35 g/ha ([7]; applied alone at 35 g/ha, postemergence, rated after 20-22 d): 100%; pest or weed control at 35 g/ha ([8]; applied alone at 35 g/ha, postemergence, rated after 20-22 d, read-out: % visual injury, Obs, POLCO): 97%; pest or weed control at 35 g/ha ([8]; applied alone at 35 g/ha, postemergence, scored 20-22 d, read-out: Obs, % visual injury, POLCO): 97%; pest or weed control at 35 g/ha ([11]; applied alone at 35 g/ha, postemergence, rated after 20-22 d, read-out: % visual injury, Obs, STEME): 97%; pest or weed control at 35 g/ha ([11]; applied alone at 35 g/ha, postemergence, scored 20-22 d, read-out: Obs, % visual injury, STEME): 97%; pest or weed control at 35 g/ha ([12]; applied alone at 35 g/ha, postemergence, scored 20-22 d): 30% |
| CCOC(=O)C1=NOC(c2ccccc2)(c2ccccc2)C1 [isoxadifen-ethyl, reference compound] | 0 | 0 | 0 | – | 0 | 0 | 0 | 0 | 0 | 0 | 0 | 0 | 0 | 0 | 0 | 0 | 0 | 0 | 0 | 0 | pest or weed control at 35 g/ha [11, 29]: 0%; pest or weed control at 35 g/ha [12]: 0% |
| CCOC(=O)C1=NN(c2ccc(Cl)cc2Cl)C(C)(C(=O)OCC)C1 (centres unmarked) [mefenpyr-diethyl, reference compound] | 0 | – | – | 0 | 0 | 0 | 0 | 0 | 0 | 0 | 0 | 0 | 0 | 0 | 0 | 0 | 0 | 0 | 0 | 0 | % visual injury, Obs, CYPES [14]: 0%; Obs, % visual injury, SORVU ([10]; scored 20-22 d): 0%; pest or weed control at 35 g/ha [11, 29]: 0%; pest or weed control at 35 g/ha [12]: 0% |
